Measured values as given in BindingDB's records for PubMed 33822624 (Ocean University of China, 2021).

Molecular target: TCF7L2 (Homo sapiens)
Test: Inhibition of beta-catenin/Tcf4 (unknown origin) in human SW480 cells assessed as reduction in cyclin D1 level qRT-PCR analysis

IC50: 4.2 µM
SMILES: CC[C@H](C)[C@H](NC(=O)[C@H]1Cc2cn(nn2)CCCC[C@H](NC(=O)[C@H](CC(C)C)NC(=O)[C@H](CO)NC(=O)[C@H](CCCNC(=N)N)NC(=O)[C@H](CCC(=O)O)NC(=O)[C@H](CCCNC(=N)N)NC(=O)[C@H](Cc2cnc[nH]2)NC(=O)[C@H]2Cc3cn(nn3)CCCC[C@H](NC(=O)[C@H](CO)NC(=O)[C@H](CC(C)C)NC(C)=O)C(=O)N[C@@H](CCC(=O)O)C(=O)N[C@@H](CCC(N)=O)C(=O)N[C@@H](CC(C)C)C(=O)N2)C(=O)N[C@@H]([C@@H](C)O)C(=O)N[C@@H](CC(C)C)C(=O)N[C@@H](CCCNC(=N)N)C(=O)N1)C(=O)N[C@@H](CCC(N)=O)C(=O)N[C@@H](CCCNC(=N)N)C(=O)N[C@@H](CC(C)C)C(=O)N[C@@H](CC(C)C)C(=O)N[C@@H](Cc1ccccc1)C(N)=O
